Ki data for two compounds are collected here from BindingDB's records for doi:10.1124/jpet.302.1.359 (Bayer, 2002).

In one experiment the target is Cannabinoid receptor 2 (Homo sapiens, UniProt P34972).
The next experiment addresses Cannabinoid receptor 1 (Homo sapiens, UniProt P21554).

Cannabinoid receptor 1, sequence (P21554 whole entry): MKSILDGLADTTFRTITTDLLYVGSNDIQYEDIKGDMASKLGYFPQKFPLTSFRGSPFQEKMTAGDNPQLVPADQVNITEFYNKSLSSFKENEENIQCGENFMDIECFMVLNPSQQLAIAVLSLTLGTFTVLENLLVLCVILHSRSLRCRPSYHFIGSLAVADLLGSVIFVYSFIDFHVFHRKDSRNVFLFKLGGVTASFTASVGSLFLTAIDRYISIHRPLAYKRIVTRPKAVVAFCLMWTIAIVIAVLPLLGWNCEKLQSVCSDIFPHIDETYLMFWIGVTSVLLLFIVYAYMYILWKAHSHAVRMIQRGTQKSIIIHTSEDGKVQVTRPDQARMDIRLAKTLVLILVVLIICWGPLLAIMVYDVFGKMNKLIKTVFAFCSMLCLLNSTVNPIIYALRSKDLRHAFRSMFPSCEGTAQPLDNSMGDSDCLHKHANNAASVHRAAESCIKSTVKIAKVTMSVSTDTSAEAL
Cannabinoid receptor 2, sequence (P34972 whole entry): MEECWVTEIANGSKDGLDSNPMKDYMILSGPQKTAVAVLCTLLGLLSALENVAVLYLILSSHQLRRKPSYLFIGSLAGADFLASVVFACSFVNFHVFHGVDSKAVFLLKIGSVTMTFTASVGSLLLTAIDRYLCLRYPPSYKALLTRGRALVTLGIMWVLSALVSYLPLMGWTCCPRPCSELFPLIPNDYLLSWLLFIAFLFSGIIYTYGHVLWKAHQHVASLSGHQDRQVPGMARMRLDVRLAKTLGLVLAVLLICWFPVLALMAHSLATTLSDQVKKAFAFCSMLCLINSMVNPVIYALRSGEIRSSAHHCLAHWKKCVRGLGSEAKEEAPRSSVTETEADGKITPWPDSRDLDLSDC

As for `O=S(=O)(CCCC(F)(F)F)Oc1cccc(Oc2ccc(O)c3c2CC(CO)=C3)c1` [KN 38-7271], affinity on Cannabinoid receptor 2 was put at a Ki of 5.96 nM.

Take `CCCCCCC(C)(C)c1cc(O)c2c(c1)OC(C)(C)[C@@H]1CC=C(CO)CC21` (stereo partly drawn) [(R)-3-(1,1-Dimethyl-heptyl)-9-hydroxymethyl-6,6-dimethyl-6a,7,10,10a-tetrahydro-6H-benzo[c]chromen-1-ol]: the Ki on Cannabinoid receptor 1 amounted to 0.41 nM.
